Laboratory results taken from ChEMBL document CHEMBL1201862, “PubChem BioAssay data set” (2004).
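Assay format: 96-well plates, 48-hour exposure. GI50: concentration for 50% inhibition of growth.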 Activity calls are given as the source filed them. Rule as the data show it: active = GI50 up to about 1.1 µM and inactive = higher. Where a SMILES comes first, the peptide text is derived from it. Bridges are numbered along the chain shown (N, C = ends). [ ]: non-standard residue; d: D form. The star is where a group is joined. ξ: configuration not given here. ξNMePhe(4-NMe2) = CNC(Cc1ccc(N(C)C)cc1)C(=O)O; Picolinoyl(3-OH) = O=C(c1ncccc1O)*; ξPip(4-oxo) = O=C1CCNC(C(=O)O)C1; Phg = N[CH](C(=O)O)c1ccccc1; Abu = CC[CH](N)C(=O)O

Experiments:
Test in all cases: NCI tumour cell line growth inhibition, 48 h
SK-MEL-28 = system: SK-MEL-28
RPMI-8226 = system: RPMI-8226
A498 = system: A498
SNB-19 = system: SNB-19
IGROV-1 = system: IGROV-1
LOX IMVI = system: LOX IMVI
MDA-MB-231 = system: MDA-MB-231
NCI-H226 = system: NCI-H226
HL-60 = system: HL-60
UO-31 = system: UO-31
HCT-116 = system: HCT-116
RXF 393 = system: RXF 393
SF-539 = system: SF-539
OVCAR-5 = system: OVCAR-5
Malme-3M = system: Malme-3M
HOP-92 = system: HOP-92
786-0 = system: 786-0
PC-3 = system: PC-3
U-251 = system: U-251
K562 = system: K562
HOP-62 = system: HOP-62
UACC-257 = system: UACC-257
SF-268 = system: SF-268
Hs-578T = system: Hs-578T
CAKI-1 = system: CAKI-1
COLO 205 = system: COLO 205
M14 = system: M14
BT-549 = system: BT-549
OVCAR-3 = system: OVCAR-3
SN12C = system: SN12C
NCI-H460 = system: NCI-H460
ACHN = system: ACHN
HCT-15 = system: HCT-15
MCF7 = system: MCF7
UACC-62 = system: UACC-62
HCC 2998 = system: HCC 2998
HT-29 = system: HT-29
SK-MEL-2 = system: SK-MEL-2
T47D = system: T47D
KM12 = system: KM12
NCI-H522 = system: NCI-H522
MDA-MB-435 = system: MDA-MB-435
EKVX = system: EKVX
MOLT-4 = system: MOLT-4
OVCAR-4 = system: OVCAR-4
SW-620 = system: SW-620
CCRF-CEM = system: CCRF-CEM
NCI/ADR-RES = system: NCI/ADR-RES
OVCAR-8 = system: OVCAR-8
SK-MEL-5 = system: SK-MEL-5
NCI-H23 = system: NCI-H23
SR = system: SR
DU-145 = system: DU-145
TK-10 = system: TK-10
MDA-N = system: MDA-N
SK-OV-3 = system: SK-OV-3
SNB-75 = system: SNB-75
SF-295 = system: SF-295
A549 = system: A549

CC1=C/C(O)CC(=O)Cc2nc(co2)C(=O)N2CCC=C2C(=O)OC(C(C)C)C(C)/C=C/C(=O)NC\C=C\1.CCC1NC(=O)C(NC(=O)c2ncccc2O)C(C)OC(=O)C(c2ccccc2)NC(=O)C2CC(=O)CCN2C(=O)C(Cc2ccc(N(C)C)cc2)N(C)C(=O)C2CCCN2C1=O (stereo not drawn) ({Picolinoyl(3-OH)}-T[Abu]P[ξNMePhe(4-NMe2)][ξPip(4-oxo)][Phg]; ester 1-C; configuration not given here)
GI50 (SK-MEL-28): 13700 nM (inactive) | GI50 (RPMI-8226): 4680 nM (inactive) | GI50 (A498): 10000 nM (inactive) | GI50 (SNB-19): 13100 nM (inactive) | GI50 (IGROV-1): 11400 nM (inactive) | GI50 (LOX IMVI): 3870 nM (inactive) | GI50 (MDA-MB-231): 7550 nM (inactive) | GI50 (NCI-H226): 13600 nM (inactive) | GI50 (HL-60): 3710 nM (inactive) | GI50 (UO-31): 20800 nM (inactive) | GI50 (HCT-116): 6400 nM (inactive) | GI50 (RXF 393): 11400 nM (inactive) | GI50 (SF-539): 17500 nM (inactive) | GI50 (OVCAR-5): 31500 nM (inactive) | GI50 (Malme-3M): 12800 nM (inactive) | GI50 (HOP-92): 3780 nM (inactive) | GI50 (786-0): 15500 nM (inactive) | GI50 (PC-3): 8070 nM (inactive) | GI50 (U-251): 11700 nM (inactive) | GI50 (K562): 4720 nM (inactive) | GI50 (HOP-62): 14600 nM (inactive) | GI50 (UACC-257): 6080 nM (inactive) | GI50 (SF-268): 24400 nM (inactive) | GI50 (Hs-578T): 18200 nM (inactive) | GI50 (CAKI-1): 28200 nM (inactive) | GI50 (COLO 205): 6590 nM (inactive) | GI50 (M14): 15000 nM (inactive) | GI50 (BT-549): 16900 nM (inactive) | GI50 (OVCAR-3): 8040 nM (inactive) | GI50 (SN12C): 9350 nM (inactive) | GI50 (NCI-H460): 3750 nM (inactive) | GI50 (ACHN): 7960 nM (inactive) | GI50 (HCT-15): 9510 nM | GI50 (MCF7): 7290 nM (inactive) | GI50 (UACC-62): 13000 nM (inactive) | GI50 (HCC 2998): 11600 nM (inactive) | GI50 (HT-29): 6410 nM (inactive) | GI50 (SK-MEL-2): 7210 nM (inactive) | GI50 (T47D): 15400 nM (inactive) | GI50 (KM12): 10400 nM (inactive) | GI50 (NCI-H522): 9100 nM (inactive) | GI50 (MDA-MB-435): 12000 nM (inactive) | GI50 (EKVX): 13600 nM (inactive) | GI50 (MOLT-4): 3640 nM (inactive) | GI50 (OVCAR-4): 12100 nM (inactive) | GI50 (SW-620): 7500 nM (inactive) | GI50 (CCRF-CEM): 1900 nM (inactive) | GI50 (NCI/ADR-RES): 25300 nM (inactive) | GI50 (OVCAR-8): 25600 nM (inactive) | GI50 (SK-MEL-5): 4910 nM (inactive) | GI50 (NCI-H23): 7050 nM (inactive) | GI50 (SR): 3860 nM (inactive) | GI50 (DU-145): 7330 nM (inactive) | GI50 (TK-10): 27200 nM (inactive) | GI50 (MDA-N): 8070 nM (inactive) | GI50 (SK-OV-3): 25500 nM (inactive) | GI50 (SNB-75): 24700 nM (inactive) | GI50 (SF-295): 3660 nM (inactive) | GI50 (A549): 16700 nM (inactive)

CC1OC(OC2C(O[C@H]3CC[C@@]4(C)C(=CC[C@H]5[C@@H]6C[C@@H]7O[C@]8(CC[C@@H](C)CO8)[C@@H](C)[C@@H]7[C@@]6(C)CC[C@@H]54)C3)OC(CO)C(OC3OC(CO)C(O)C3O)C2O)C(O)C(O)C1O (stereo partly drawn)
GI50 (SK-MEL-28): 605 nM (active) | GI50 (RPMI-8226): 724 nM (active) | GI50 (A498): 881 nM (active) | GI50 (SNB-19): 762 nM (active) | GI50 (IGROV-1): 847 nM (active) | GI50 (LOX IMVI): 521 nM (active) | GI50 (MDA-MB-231): 800 nM (active) | GI50 (NCI-H226): 867 nM (active) | GI50 (HL-60): 964 nM (active) | GI50 (UO-31): 798 nM (active) | GI50 (HCT-116): 851 nM (active) | GI50 (RXF 393): 865 nM (active) | GI50 (SF-539): 644 nM (active) | GI50 (OVCAR-5): 800 nM (active) | GI50 (Malme-3M): 877 nM (active) | GI50 (HOP-92): 1010 nM (active) | GI50 (786-0): 673 nM (active) | GI50 (PC-3): 776 nM (active) | GI50 (U-251): 619 nM (active) | GI50 (K562): 1230 nM (inactive) | GI50 (HOP-62): 897 nM (active) | GI50 (UACC-257): 908 nM (active) | GI50 (SF-268): 841 nM (active) | GI50 (Hs-578T): 805 nM (active) | GI50 (CAKI-1): 867 nM (active) | GI50 (COLO 205): 600 nM (active) | GI50 (M14): 745 nM (active) | GI50 (BT-549): 975 nM (active) | GI50 (OVCAR-3): 918 nM (active) | GI50 (SN12C): 571 nM (active) | GI50 (NCI-H460): 438 nM (active) | GI50 (ACHN): 855 nM (active) | GI50 (HCT-15): 895 nM | GI50 (MCF7): 774 nM (active) | GI50 (UACC-62): 805 nM (active) | GI50 (HCC 2998): 366 nM (active) | GI50 (HT-29): 805 nM (active) | GI50 (SK-MEL-2): 1010 nM (active) | GI50 (T47D): 1120 nM (active) | GI50 (KM12): 912 nM (active) | GI50 (NCI-H522): 995 nM (active) | GI50 (MDA-MB-435): 869 nM (active) | GI50 (EKVX): 885 nM (active) | GI50 (MOLT-4): 785 nM (active) | GI50 (OVCAR-4): 931 nM (active) | GI50 (SW-620): 766 nM (active) | GI50 (CCRF-CEM): 160 nM (active) | GI50 (NCI/ADR-RES): 910 nM (active) | GI50 (OVCAR-8): 535 nM (active) | GI50 (SK-MEL-5): 746 nM (active) | GI50 (NCI-H23): 836 nM (active) | GI50 (SR): 695 nM (active) | GI50 (DU-145): 984 nM (active) | GI50 (TK-10): 989 nM (active) | GI50 (MDA-N): 752 nM (active) | GI50 (SK-OV-3): 940 nM (active) | GI50 (SNB-75): 724 nM (active) | GI50 (SF-295): 745 nM (active) | GI50 (A549): 634 nM (active)
